In publication PMC11111408, “Concurrent inhibition of oncogenic and wild-type RAS-GTP for cancer therapy” (Nature, 2024):
Values joined by “and” are separate entries in the source; they are usually repeats but may differ in a detail not shown here. Equal values may be shown once.

Assays:
[1] = test system: A375 cells; experiment: Cellular ERK phosphorylation (pERK); assay type: cell-based, human
[2] = test system: A375 cells; experiment: Cell proliferation (CTG); assay type: cell-based, human
Protocol: Alternatively, cells were seeded in round-bottom ultra-low attachment 96-well plates, centrifuged at 1,000 rpm for 10 min to pellet the cells, and incubated overnight or up to 72 h to allow for 3D spheroid formation. […] Cell viability was determined by CellTiter-Glo 2.0 reagent (2D CTG) (Promega, G9243) or 3D CellTiter-Glo reagent (3D CTG) (Promega, G9683) according to the manufacturer’s protocols. Luminescence was detected using a SpectraMax M5 Plate Reader (Molecular Devices) of Perkin Elmer Enspire. Luminescence signal was normalized to vehicle-treated wells (normalized signal (%) = (luminescence (treated)/mean luminescence (vehicle)) × 100%). […] Data were plotted as log [inhibitor (M)], and a four-parameter sigmoidal concentration response model was fitted to the data to calculate EC50. […] Pa16C MEK1 mutant cells were evaluated by live-cell counting using Calcein AM and a SpectraMax i3X multi-mode detection platform (Molecular Devices). Growth percentages were calculated by normalizing the treated cell counts to their respective untreated cell counts.

[3] = test system: NCI-H441, HPAC and SW620 CDX models; experiment: CDX models, RMC-7977 versus SHP2 and MEK inhibitors; details: three KRAS^G12X models; RMC-7977 10 mg kg^−1 once daily, RMC-4550 20 mg kg^−1 every 2 days, cobimetinib 2.5 mg kg^−1 once daily, alone or in combination
Protocol: Data are mean ± s.e.m. of 3–18 mice per group.
Female BALB/c nude mice, NOD SCID and NSG mice 6-8 weeks old from Beijing Vital River/VR Laboratory Animal Co., LTD, Beijing AniKeeper Biotech Co., Ltd., Shanghai Sino-British SIPPR/BK Laboratory Animal Co., LTD and The Jackson Laboratory were used. Animals were housed in polycarbonate cages, in an environmentally monitored, well ventilated room maintained at a constant temperature of 20-26°C and relative humidity of 40-80%. Fluorescent lighting provided illumination approximately 12 hours per day. Each mouse was inoculated at the right flank with tumor cells (2x10^6-1x10^7) in 100-200 µL of media/PBS supplemented with Matrigel (1:1). Treatments were started when the average tumor size reached 100-250 mm^3. […] Mice on studies were weighed and tumor measurements collected twice weekly. Human primary cancer xenograft models were generated using fresh cancer tumor fragments obtained from hospitals with informed consent from the patients in accordance with protocols approved by the Hospital Institutional Ethical Committee (IEC). Tumor fragments were serial-passaged in BABL/c nude mice and then cryopreserved. Cryopreserved tumors were recovered by implantation in BALB/c nude mice and further serial passaged and frozen for study implantation use. Recovered tumor fragments of about 15-30 mm3 in size from each model were implanted into right flanks of Balb/c nude mice. Treatment started when average tumor volume reached 100-250mm^3. For efficacy study, Animals were assigned to study groups using stratified randomization based upon their tumor volumes (n=3-10/group). […] Animals were treated for 28 days (or up to 110 for selected models) or an earlier time if tumor burden reached humane endpoint. Mean ± s.e.m was plotted in the waterfall plots. The dashed line on waterfall plot indicates a 10% reduction in tumor volume from baseline. […] Body weights were collected twice a week during the study. For single-dose pharmacokinetic/pharmacodynamics (PK/PD) study, mice were randomized into treatment groups when mean tumor volume reached 400-600 mm^3.

[4] = biological target: KRAS^G12R (Homo sapiens, UniProt P01116+P62937, G12R); experiment: RAS binding affinity of compound-bound CYPA (Kd2), SPR; design: made in house; host or cells: BL21(DE3) Escherichia coli; details: steady state SPR, (95% CI)
[5] = biological target: T1, KRAS^G12V (Homo sapiens, UniProt P01116+P62937, G12V); experiment: Cellular RAS–RAF (CRAF RBD) disruption, nano-BRET in U2OS cells; assay type: cell-based; design: expressed in transfected cells; host or cells: U2OS PPIA-KO; Cellular RAS-RAF disruption G12V / Cellular nano-BRET G12V: scale not given here
From the text: KRAS4B, or other small GTPases, containing the indicated mutations were cloned in pNLF-N or pHTN plasmids for expression with an N-terminal nanoluciferase or HaloTag fusion, respectively. […] The following day, the cells were collected by Trypsin and reseeded in a white tissue culture-treated 96-well plate in OptiMem phenol red-free medium (Gibco) containing 4% FBS and a 1:1,000 dilution of NanoBRET 618 HaloTag ligand (Promega). For endpoint concentration response curves, vivazine nanoluciferase substrate was added to 1× concentration in OptiMem phenol red-free medium with 4% FBS. Varying concentrations of inhibitor were added and incubated for 1 or 4 h before the nano-BRET signal was measured on a Perkin Elmer Envision plate reader. For kinetic assays, endurazine nanoluciferase substrate was used in place of vivazine, and the plate was placed in a Cytation5 multi-mode reader pre-equilibrated to 37 °C and 5% CO2.

[6] = biological target: T1, KRAS^G12V; experiment: KRAS–RALGDS RID binding inhibition in vitro; assay type: biochemical; design: His6-TEV (N); made in house; host or cells: BL21(DE3) Escherichia coli; TR-FRET of recombinant KRAS and RALGDS RID: scale not given here; details: for TR-FRET of recombinant KRAS and RALGDS RID: KRAS G12V, single replicates
[7] = A375, BRAF^V600E, RAS-independent

**Q.** For `CCn1c(-c2cc(N3CCN(C4CC4)CC3)cnc2[C@H](C)OC)c2c3cc(ccc31)-c1csc(n1)C[C@H](NC(=O)[C@H]1[C@@H]3COC[C@@H]31)C(=O)N1CCC[C@H](N1)C(=O)OCC(C)(C)C2` [RMC-7977], which “inhibition of downstream signalling (pERK)” value [1, 7] is on record?
**A.** Its value is “No inhibition”.

**Q.** And the EC50 ([1]; Homo sapiens, A-375, A375 (BRAF^V600E))?
**A.** The EC50 was > 10000 nM.

**Q.** What about the inhibition of proliferation [2, 7] of the same compound?
**A.** The inhibition of proliferation was “No inhibition”.

**Q.** And the EC50 ([2]; Homo sapiens, A-375, A375, CTG, (95% CI))?
**A.** The EC50 was 8830 nM.

**Q.** What about the anti-tumour activity [3] of the same compound?
**A.** The anti-tumour activity was “deep regressions in all three models”.

**Q.** And the Kd [4]?
**A.** The Kd was 272 nM.

**Q.** What about the EC50 ([5]; KRAS^G12V, CRAF RBD, nano-BRET, (95% CI)) of the same compound?
**A.** The EC50 was 7.66 nM.

**Q.** And the “Cellular RAS-RAF disruption G12V” value ([5]; RMC-7977 0.0254 nM)?
**A.** Its value is 100.00.

**Q.** What about the “Cellular RAS-RAF disruption G12V” value ([5]; RMC-7977 0.05 nM) of the same compound?
**A.** Its value is 95.09 and 96.3702.

**Q.** And the “Cellular RAS-RAF disruption G12V” value ([5]; RMC-7977 0.08 nM)?
**A.** The value was 99.62.

**Q.** And the “Cellular RAS-RAF disruption G12V” value ([5]; RMC-7977 0.23 nM)?
**A.** The value was 93.81.

**Q.** And the “Cellular RAS-RAF disruption G12V” value ([5]; RMC-7977 0.46 nM)?
**A.** The value was 63.26 and 77.9214.

**Q.** What about the “Cellular RAS-RAF disruption G12V” value ([5]; RMC-7977 2.06 nM) of the same compound?
**A.** The value was 66.75.

**Q.** What about the “Cellular RAS-RAF disruption G12V” value ([5]; RMC-7977 4.12 nM) of the same compound?
**A.** Its value is 17.09 and 32.4499.

**Q.** And the “Cellular RAS-RAF disruption G12V” value ([5]; RMC-7977 12.35 nM)?
**A.** The value was 8.26 and 13.953.

**Q.** What about the “Cellular RAS-RAF disruption G12V” value ([5]; RMC-7977 18.52 nM) of the same compound?
**A.** The value was 13.89.

**Q.** What about the “Cellular RAS-RAF disruption G12V” value ([5]; RMC-7977 37.04 nM) of the same compound?
**A.** The value was 4 and 4.5731.

**Q.** And the “Cellular RAS-RAF disruption G12V” value ([5]; RMC-7977 55.56 nM)?
**A.** Its value is 3.90.

**Q.** And the “Cellular RAS-RAF disruption G12V” value ([5]; RMC-7977 111.11 nM)?
**A.** Its value is 1.99 and 1.6717.

**Q.** And the “Cellular RAS-RAF disruption G12V” value ([5]; RMC-7977 166.67 nM)?
**A.** The value was 0.38.

**Q.** What about the “Cellular RAS-RAF disruption G12V” value ([5]; RMC-7977 500.00 nM) of the same compound?
**A.** Its value is 0.05.

**Q.** What about the “Cellular nano-BRET G12V” value ([5]; calculated RMC-7977:CYPA complexes 1.95 nM) of the same compound?
**A.** Its value is 99.62.

**Q.** What about the “Cellular nano-BRET G12V” value ([5]; calculated RMC-7977:CYPA complexes 34.93 nM) of the same compound?
**A.** Its value is 41.01 and 56.3646.

**Q.** What about the “Cellular nano-BRET G12V” value ([5]; calculated RMC-7977:CYPA complexes 52.21 nM) of the same compound?
**A.** Its value is 66.75.

**Q.** And the “Cellular nano-BRET G12V” value ([5]; calculated RMC-7977:CYPA complexes 153.42 nM)?
**A.** The value was 36.46.

**Q.** What about the “Cellular nano-BRET G12V” value ([5]; calculated RMC-7977:CYPA complexes 297.71 nM) of the same compound?
**A.** Its value is 8.26 and 13.953.

**Q.** And the “Cellular nano-BRET G12V” value ([5]; calculated RMC-7977:CYPA complexes 433.65 nM)?
**A.** The value was 13.89.

**Q.** What about the “Cellular nano-BRET G12V” value ([5]; calculated RMC-7977:CYPA complexes 798.08 nM) of the same compound?
**A.** Its value is 4 and 4.5731.

**Q.** And the “Cellular nano-BRET G12V” value ([5]; calculated RMC-7977:CYPA complexes 1814.88 nM)?
**A.** The value was 1.99 and 1.6717.

**Q.** What about the “Cellular nano-BRET G12V” value ([5]; calculated RMC-7977:CYPA complexes 2304.15 nM) of the same compound?
**A.** The value was 0.38.

**Q.** What about the “Cellular nano-BRET G12V” value ([5]; calculated RMC-7977:CYPA complexes 3597.12 nM) of the same compound?
**A.** Its value is 0.05.

**Q.** And the “TR-FRET of recombinant KRAS and RALGDS RID” value (“TR-FRET” for short) ([6]; RMC-7977 0.005 nM with CYPA)?
**A.** The value was 1.0295 and 1.03 and 1.0995 and 1.02.

**Q.** What about the “TR-FRET” value ([6]; RMC-7977 0.046 nM with CYPA) of the same compound?
**A.** Its value is 1.033 and 0.9862 and 0.9822 and 1.02.

**Q.** And the “TR-FRET” value ([6]; RMC-7977 0.412 nM with CYPA)?
**A.** Its value is 0.9113 and 1.003 and 0.948 and 0.8985.

**Q.** What about the “TR-FRET” value ([6]; RMC-7977 1.235 nM with CYPA) of the same compound?
**A.** Its value is 0.868 and 0.861 and 0.9113 and 0.9277.

**Q.** What about the “TR-FRET” value ([6]; RMC-7977 3.704 nM with CYPA) of the same compound?
**A.** Its value is 0.6665 and 0.6727 and 0.7087 and 0.775.

**Q.** And the “TR-FRET” value ([6]; RMC-7977 11.111 nM with CYPA)?
**A.** Its value is 0.4672 and 0.5503 and 0.4273 and 0.4677.

**Q.** And the “TR-FRET” value ([6]; RMC-7977 33.333 nM with CYPA)?
**A.** Its value is 0.2172 and 0.237 and 0.1963 and 0.1593.

**Q.** And the “TR-FRET” value ([6]; RMC-7977 100.000 nM with CYPA)?
**A.** The value was 0.031 and -0.01375 and 0.0395 and 0.0045.

**Q.** What about the IC50 ([6]; KRAS^G12V, recombinant, with CYPA) of the same compound?
**A.** Its IC50 is 8 nM.
